Read-outs that look alike come from different tables or passages of the source.
What was measured:
[1] = Plasma protein binding, rapid equilibrium dialysis; format: in vitro ADME; conditions: mouse, read-out: Plasma protein binding rate
[2] = test system: RET phosphorylation in BaF3-CCDC6-RET^WT cells; test: RET signaling pathway phosphorylation in cells; format: cell-based
[3] = Acute toxicity, single oral gavage; conditions: both sexes, beagle, dog, in vivo, read-out: MTD, single dose
[4] = test system: Chinese hamster ovary cells; test: In vitro chromosome aberration test; format: cell-based
[5] = test system: Salmonella typhimurium and Escherichia coli; format: cell-based
[6] = Plasma protein binding, rapid equilibrium dialysis; format: in vitro ADME; conditions: rat, read-out: Plasma protein binding rate (converted)
CYP1A2 = target: T1, CYP1A2 (Homo sapiens, UniProt P05177); test: CYP inhibition in human liver microsomes; format: in vitro ADME; conditions: 0.5-25 μM
T1 construct: substrates of different CYP450 enzymes in mixed human liver microsomes; from tissue; host or cells: mixed human liver microsomes

central nervous system = test: Central nervous system safety pharmacology; format: in vivo, SD rats; conditions: single oral, males 15-40, females 30-80 mg/kg
Experimental: All rats were evaluated for cage-side observation, detailed clinical observation, body weight and neurofunctional behavioural indices including in-cage observation, restraint observation, field observation, stimulus reflex observation and body temperature.

[7] = Phase 1 trial: plasma pharmacokinetics; format: in vivo; conditions: human; for AUC(0-t): read-out: AUC0–12 h mean; for MRT inf: read-out: MRTINF_obs mean
Text: Serial plasma samples were also collected in each patient after the first dose and during multiple-dose administration on Cycle 1 Day 28.

[8] = Plasma protein binding, rapid equilibrium dialysis; format: in vitro ADME; conditions: monkey, read-out: Plasma protein binding rate (converted)
RET alterations in ctDNA = test: ctDNA profiling (1021-gene NGS panel); format: in vivo, human; conditions: Cycle 1 Day 28, of 23 patients
Experimental: A retrospective analysis of circulating tumor DNA (ctDNA) profiling was performed using longitudinal plasma samples obtained at baseline, Cycle 1 Day 28, and post-progressive disease. At baseline, blood samples from all patients were subjected for NGS. Among them, 67 (54.9%) patients had detectable RET alterations in ctDNA, including KIF5B-RET (51/122, 41.8%), CCDC6-RET (5/122, 4.1%), NCOA4-RET (3/122, 2.5%), RET^M918T mutation (7/122, 5.7%) and other RET variation (1/122, 0.8%).
For molecular profiling, plasma samples were collected at baseline, Cycle 1 Day 28, and post-progressive disease, and the ctDNA were isolated for analysis. Gene alteration status was analyzed at a central laboratory using a validated, commercially available 1021-gene NGS panel (GenePlus, Beijing, China).

[9] = 20 mg, Cycle 1 Day 1, 20 mg BID (n = 1)
[10] = 20 mg, Cycle 1 Day 1, 20 mg QD (n = 1)
[11] = 40 mg, Cycle 1 Day 1, 40 mg BID (n = 3)
[12] = 80 mg, Cycle 1 Day 1, 80 mg BID (n = 3)
[13] = 120 mg, Cycle 1 Day 1, 120 mg BID (n = 3)
[14] = 160 mg, Cycle 1 Day 1, 160 mg BID (n = 23)
[15] = 160 mg, Cycle 1 Day 28, 160 mg BID (n = 15)
[16] = 200 mg, Cycle 1 Day 28, 200 mg BID (n = 5)
[17] = oral, 20 mg, Cycle 1 Day 28, 20 mg BID (n = 1)
[18] = oral, 20 mg, Cycle 1 Day 28, 20 mg QD (n = 1)
[19] = oral, 40 mg, Cycle 1 Day 28, 40 mg BID (n = 3)
[20] = oral, 80 mg, Cycle 1 Day 28, 80 mg BID (n = 3)
[21] = oral, 120 mg, Cycle 1 Day 28, 120 mg BID (n = 3)
[22] = oral, 200 mg, Cycle 1 Day 1, 200 mg BID (n = 9)

T1 sequence (P05177 whole entry): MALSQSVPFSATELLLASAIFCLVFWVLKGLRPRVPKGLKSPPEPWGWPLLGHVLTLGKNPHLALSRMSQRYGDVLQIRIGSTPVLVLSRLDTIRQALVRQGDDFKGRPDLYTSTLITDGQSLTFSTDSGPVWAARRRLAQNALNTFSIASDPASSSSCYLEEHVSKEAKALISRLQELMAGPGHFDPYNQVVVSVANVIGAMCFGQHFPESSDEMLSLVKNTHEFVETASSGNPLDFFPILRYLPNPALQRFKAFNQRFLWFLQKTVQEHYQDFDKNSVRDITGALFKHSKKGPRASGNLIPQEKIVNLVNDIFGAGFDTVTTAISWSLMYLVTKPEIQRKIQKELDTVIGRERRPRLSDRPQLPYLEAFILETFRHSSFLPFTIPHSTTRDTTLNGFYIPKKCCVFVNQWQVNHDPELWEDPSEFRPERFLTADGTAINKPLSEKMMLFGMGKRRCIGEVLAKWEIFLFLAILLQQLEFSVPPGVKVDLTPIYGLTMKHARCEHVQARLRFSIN

COc1ccc(CN2C3CC2CN(c2ccc(-c4cc(N5CC(C)(O)C5)cn5ncc(C#N)c45)cn2)C3)cn1 [SY-5007, 6-(3-hydroxy-3-methylazetidin-1-yl)-4-(6-(6-((6-methoxypyridin-3-yl)methyl)-3,6-diazabicyclo[3.1.1]heptan-3-yl)pyridin-3-yl)pyrazolo[1,5-a]pyridine-3-carbonitrile]
fraction unbound [1]: 0.01
Concentration at which effect reaches saturation [2]: 10 nM
Concentration significantly inhibiting RET phosphorylation [2]: 1 nM
MTD [3]: 200 mg/kg
Chromosome aberration test result [4]: negative
Ames test result [5]: negative
fraction unbound [6]: 0.034
IC50 (CYP1A2): > 25 µM
CNS effects (central nervous system): did not affect any of the assessed neurofunctional-behavioural parameters
AUC(0-t) [7, 9]: 1580 ng·h/mL
AUC(0-inf) ([7]; 20 mg, Cycle 1 Day 1, 20 mg BID (n = 1), read-out: AUCINF_obs mean): 3830 ng·h/mL
Cmax ([7]; 20 mg, Cycle 1 Day 1, 20 mg BID (n = 1), read-out: Cmax mean): 214 ng/mL
MRT inf [7, 9]: 16.7 h
half-life ([7]; 20 mg, Cycle 1 Day 1, 20 mg BID (n = 1), read-out: T1/2 mean (converted)): 726 min
Tmax ([7]; 20 mg, Cycle 1 Day 1, 20 mg BID (n = 1), read-out: Tmax mean): 4 h
AUC(0-t) [7, 10]: 2230 ng·h/mL
AUC(0-inf) ([7]; 20 mg, Cycle 1 Day 1, 20 mg QD (n = 1), read-out: AUCINF_obs mean): 2410 ng·h/mL
Cmax ([7]; 20 mg, Cycle 1 Day 1, 20 mg QD (n = 1), read-out: Cmax mean): 391 ng/mL
MRT inf [7, 10]: 7.7 h
half-life ([7]; 20 mg, Cycle 1 Day 1, 20 mg QD (n = 1), read-out: T1/2 mean (converted)): 408 min
Tmax ([7]; 20 mg, Cycle 1 Day 1, 20 mg QD (n = 1), read-out: Tmax mean): 1 h
AUC(0-t) [7, 11]: 2720 ng·h/mL
AUC(0-inf) ([7]; 40 mg, Cycle 1 Day 1, 40 mg BID (n = 3), read-out: AUCINF_obs mean): 3760 ng·h/mL
Cmax ([7]; 40 mg, Cycle 1 Day 1, 40 mg BID (n = 3), read-out: Cmax mean): 714 ng/mL
MRT inf [7, 11]: 8.9 h
half-life ([7]; 40 mg, Cycle 1 Day 1, 40 mg BID (n = 3), read-out: T1/2 mean (converted)): 522 min
Tmax ([7]; 40 mg, Cycle 1 Day 1, 40 mg BID (n = 3), read-out: Tmax mean): 0.5 h
AUC(0-t) [7, 12]: 5150 ng·h/mL
AUC(0-inf) ([7]; 80 mg, Cycle 1 Day 1, 80 mg BID (n = 3), read-out: AUCINF_obs mean): 7220 ng·h/mL
Cmax ([7]; 80 mg, Cycle 1 Day 1, 80 mg BID (n = 3), read-out: Cmax mean): 1450 ng/mL
MRT inf [7, 12]: 12.4 h
half-life ([7]; 80 mg, Cycle 1 Day 1, 80 mg BID (n = 3), read-out: T1/2 mean (converted)): 2270 min
Tmax ([7]; 80 mg, Cycle 1 Day 1, 80 mg BID (n = 3), read-out: Tmax mean): 0.5 h
AUC(0-t) [7, 13]: 9270 ng·h/mL
AUC(0-inf) ([7]; 120 mg, Cycle 1 Day 1, 120 mg BID (n = 3), read-out: AUCINF_obs mean): 14100 ng·h/mL
Cmax ([7]; 120 mg, Cycle 1 Day 1, 120 mg BID (n = 3), read-out: Cmax mean): 2470 ng/mL
MRT inf [7, 13]: 11.6 h
half-life ([7]; 120 mg, Cycle 1 Day 1, 120 mg BID (n = 3), read-out: T1/2 mean (converted)): 2660 min
Tmax ([7]; 120 mg, Cycle 1 Day 1, 120 mg BID (n = 3), read-out: Tmax mean): 0.5 h
AUC(0-t) [7, 14]: 16700 ng·h/mL
AUC(0-inf) ([7]; 160 mg, Cycle 1 Day 1, 160 mg BID (n = 23), read-out: AUCINF_obs mean): 21300 ng·h/mL
Cmax ([7]; 160 mg, Cycle 1 Day 1, 160 mg BID (n = 23), read-out: Cmax mean): 3470 ng/mL
MRT inf [7, 14]: 8.2 h
half-life ([7]; 160 mg, Cycle 1 Day 1, 160 mg BID (n = 23), read-out: T1/2 mean (converted)): 648 min
Tmax ([7]; 160 mg, Cycle 1 Day 1, 160 mg BID (n = 23), read-out: Tmax mean): 1 h
AUC(0-t) [7, 15]: 36800 ng·h/mL
AUC(0-inf) ([7]; 160 mg, Cycle 1 Day 28, 160 mg BID (n = 15), read-out: AUCINF_obs mean): 67200 ng·h/mL
Cmax ([7]; 160 mg, Cycle 1 Day 28, 160 mg BID (n = 15), read-out: Cmax mean): 4730 ng/mL
MRT inf [7, 15]: 13.9 h
half-life ([7]; 160 mg, Cycle 1 Day 28, 160 mg BID (n = 15), read-out: T1/2 mean (converted)): 540 min
Tmax ([7]; 160 mg, Cycle 1 Day 28, 160 mg BID (n = 15), read-out: Tmax mean): 2 h
AUC(0-t) [7, 16]: 41100 ng·h/mL
AUC(0-inf) ([7]; 200 mg, Cycle 1 Day 28, 200 mg BID (n = 5), read-out: AUCINF_obs mean): 63700 ng·h/mL
Cmax ([7]; 200 mg, Cycle 1 Day 28, 200 mg BID (n = 5), read-out: Cmax mean): 5520 ng/mL
MRT inf [7, 16]: 10.8 h
half-life ([7]; 200 mg, Cycle 1 Day 28, 200 mg BID (n = 5), read-out: T1/2 mean (converted)): 420 min
Tmax ([7]; 200 mg, Cycle 1 Day 28, 200 mg BID (n = 5), read-out: Tmax mean): 2 h
AUC(0-t) [7, 17]: 2940 ng·h/mL
AUC(0-inf) ([7]; oral, 20 mg, Cycle 1 Day 28, 20 mg BID (n = 1), read-out: AUCINF_obs mean): 4020 ng·h/mL
Cmax ([7]; oral, 20 mg, Cycle 1 Day 28, 20 mg BID (n = 1), read-out: Cmax mean): 640 ng/mL
MRT inf [7, 17]: 9 h
half-life ([7]; oral, 20 mg, Cycle 1 Day 28, 20 mg BID (n = 1), read-out: T1/2 mean (converted)): 438 min
Tmax ([7]; oral, 20 mg, Cycle 1 Day 28, 20 mg BID (n = 1), read-out: Tmax mean): 0.5 h
AUC(0-t) [7, 18]: 2200 ng·h/mL
AUC(0-inf) ([7]; oral, 20 mg, Cycle 1 Day 28, 20 mg QD (n = 1), read-out: AUCINF_obs mean): 2340 ng·h/mL
Cmax ([7]; oral, 20 mg, Cycle 1 Day 28, 20 mg QD (n = 1), read-out: Cmax mean): 388 ng/mL
MRT inf [7, 18]: 7.7 h
half-life ([7]; oral, 20 mg, Cycle 1 Day 28, 20 mg QD (n = 1), read-out: T1/2 mean (converted)): 360 min
Tmax ([7]; oral, 20 mg, Cycle 1 Day 28, 20 mg QD (n = 1), read-out: Tmax mean): 1 h
AUC(0-t) [7, 19]: 5810 ng·h/mL
AUC(0-inf) ([7]; oral, 40 mg, Cycle 1 Day 28, 40 mg BID (n = 3), read-out: AUCINF_obs mean): 7100 ng·h/mL
Cmax ([7]; oral, 40 mg, Cycle 1 Day 28, 40 mg BID (n = 3), read-out: Cmax mean): 1280 ng/mL
MRT inf [7, 19]: 6.8 h
half-life ([7]; oral, 40 mg, Cycle 1 Day 28, 40 mg BID (n = 3), read-out: T1/2 mean (converted)): 300 min
Tmax ([7]; oral, 40 mg, Cycle 1 Day 28, 40 mg BID (n = 3), read-out: Tmax mean): 0.5 h
AUC(0-t) [7, 20]: 12600 ng·h/mL
AUC(0-inf) ([7]; oral, 80 mg, Cycle 1 Day 28, 80 mg BID (n = 3), read-out: AUCINF_obs mean): 18800 ng·h/mL
Cmax ([7]; oral, 80 mg, Cycle 1 Day 28, 80 mg BID (n = 3), read-out: Cmax mean): 1960 ng/mL
MRT inf [7, 20]: 8.2 h
half-life ([7]; oral, 80 mg, Cycle 1 Day 28, 80 mg BID (n = 3), read-out: T1/2 mean (converted)): 330 min
Tmax ([7]; oral, 80 mg, Cycle 1 Day 28, 80 mg BID (n = 3), read-out: Tmax mean): 1 h
AUC(0-t) [7, 21]: 21500 ng·h/mL
AUC(0-inf) ([7]; oral, 120 mg, Cycle 1 Day 28, 120 mg BID (n = 3), read-out: AUCINF_obs mean): 34000 ng·h/mL
Cmax ([7]; oral, 120 mg, Cycle 1 Day 28, 120 mg BID (n = 3), read-out: Cmax mean): 2870 ng/mL
MRT inf [7, 21]: 10.5 h
half-life ([7]; oral, 120 mg, Cycle 1 Day 28, 120 mg BID (n = 3), read-out: T1/2 mean (converted)): 420 min
Tmax ([7]; oral, 120 mg, Cycle 1 Day 28, 120 mg BID (n = 3), read-out: Tmax mean): 1 h
AUC(0-t) [7, 22]: 14900 ng·h/mL
AUC(0-inf) ([7]; oral, 200 mg, Cycle 1 Day 1, 200 mg BID (n = 9), read-out: AUCINF_obs mean): 21600 ng·h/mL
Cmax ([7]; oral, 200 mg, Cycle 1 Day 1, 200 mg BID (n = 9), read-out: Cmax mean): 3180 ng/mL
MRT inf [7, 22]: 15 h
half-life ([7]; oral, 200 mg, Cycle 1 Day 1, 200 mg BID (n = 9), read-out: T1/2 mean (converted)): 1430 min
Tmax ([7]; oral, 200 mg, Cycle 1 Day 1, 200 mg BID (n = 9), read-out: Tmax mean): 1 h
AUC(0-inf) ([7]; oral, single dose, 20 mg to 160 mg, read-out: AUCINF_obs range): 2410 to 21300 ng·h/mL
Cmax ([7]; oral, single dose, 20 mg to 160 mg, read-out: Cmax range): 214 to 3470 ng/mL
half-life ([7]; oral, single dose, read-out: Mean T1/2 across dose cohorts): 408 to 2660 min
Tmax ([7]; oral, single dose, read-out: Mean Tmax across dose cohorts): 0.5 to 4 h
fraction unbound [8]: 0.023
Patients with complete RET clearance in ctDNA (RET alterations in ctDNA): 21 patients

— paper PMC11532403 (Signal Transduction and Targeted Therapy, 2024)
